Each structure is given as a SMILES string.

Data set [1] is described as follows: Spleen weight in the mice tested in Tests 11-18. The format is in vivo, mouse.
Data set [2] concerns HLA-A*02:01 transgenic mouse. Description: Test 6: in vivo adjuvant activity, vaccine c (Peptide SEQ ID No. 6), IFNγ ELISPOT. The following applies: added to vaccine c; 0.4 nmol per body, twice; FIG. 3. As to the method: Test 6 Evaluation of In Vivo Adjuvant Activity in HLA-A*02:01 Transgenic Mouse
The in vivo adjuvant activity of the compound of Example 1 was evaluated in the following procedure. To a vaccine prepared by mixing Peptide SEQ ID No. 6 prepared in Reference example 6 with Montanide ISA 51 VG (hereinafter, referred to as “vaccine c”) was added the compound prepared in Example 1 to prepare a vaccine. The vaccine was administered to a HLA-A*02:01 transgenic mouse, and the adjuvant activity of the vaccine was evaluated by the method of testing antigen-specific CTL induction. The GLYDGMEHL in Peptide SEQ ID No. 6 corresponds to an antigen peptide derived from an HLA-A*02:01-restricted MAGE-A10 protein.
The character for inducing CTLs specific to the antigen peptide (SEQ ID No. 6) by vaccine c was evaluated by measuring whether IFNγ can be produced upon stimulation of splenocytes from the mouse with the peptide. In addition, the character for exerting in vivo adjuvant activity by the compound in Example 1 was evaluated by comparing the number of CTLs induced by vaccine c and the number of CTLs induced by the vaccine prepared by adding the compound prepared in Example 1 to vaccine c, and checking presence or absence of the increase on the number.
Specifically, Peptide of SEQ ID No. 6 was dissolved in DMSO, and then diluted with water for injection to concentrations of 0.1 mg/mL. […]

The test system of data set [3] is HLA-A*02:01 transgenic mouse. The data set can be described thus: Test 13: in vivo adjuvant activity, cocktail vaccine h (emulsified composition 3), IFNγ ELISPOT. As to conditions: added to cocktail vaccine h (emulsified composition 3); 0.04 nmol per body, twice; FIG. 14. How it is done:
Evaluation of In Vivo Adjuvant Activity in HLA-A*02:01 Transgenic Mouse
The in vivo adjuvant activity of the compound of Example 1 was evaluated in the following procedure. To a cocktail vaccine (emulsified composition 3) comprising Compound of formula 4 prepared in Reference example 8 and Peptide SEQ ID No. 3 prepared in Reference example 3 (hereinafter, referred to as “cocktail vaccine h”) was added the compound prepared in Example 1 to prepare a vaccine. The vaccine was administered to a HLA-A*02:01 transgenic mouse, and the adjuvant activity of the vaccine was evaluated by the method of testing antigen-specific CTL induction.
For example, the above emulsified composition 3 was prepared as follows. 95.8% (w/w) of isopropyl myristate, 3% (w/w) of PEG-30 dipolyhydroxy stearate, and 1.2% (w/w) of polysorbate 80 were mixed to prepare an oil-phase mixture. The amount of the preparation was adjusted as appropriate. Compound of formula 4 and Peptide SEQ ID No. 3 were mixed with pH 2.5 buffer (10 mM tartaric acid, 10% trehalose) to adjust each concentration to 3 mg/mL and 2.25 mg/mL, respectively. The prepared peptide dilution was mixed with an equal volume of the oil-phase mixture to give an emulsified product, cocktail vaccine h. […] Then, after removal of the supernatant from the wells, stained spots on the ELISPOT plate were counted.

With `CCCCCNc1nc(N)nc(C)c1Cc1ccc(CN(C)CCOCCOCCOCCOCCO)cc1OC` [Example 1, 1-(4-{[2-amino-4-methyl-6-(pentylamino)pyrimidin-5-yl]methyl}-3-methoxyphenyl)-2-methyl-5,8,11,14-tetraoxa-2-azahexadecan-16-ol·trifluoroacetate], the spleen weight entry is “does not induce a pronounced increase of spleen weight” in data set [1] (mice tested in Tests 11-13 (emulsified compositions), FIG. 26); “does not induce a pronounced increase of spleen weight” in data set [1] (mice tested in Tests 14 and 15 (oily suspension, hydrogel), FIG. 27); “does not induce a pronounced increase of spleen weight” in data set [1] (mice tested in Tests 16-18 (liposome formulations), FIG. 28). Also, in data set [2], the “CTL counts responsive to Peptide SEQ ID No. 6 compared with adding no compound” value is “more”. In addition, the “CTL counts responsive to Peptide SEQ ID No. 1 compared with adding no compound” value in data set [3] was “more”.

The record behind these values is US12427192B2, “Water soluble adjuvant and composition containing same” (Sumitomo Pharma Co., Ltd., priority 2019, dated 2025).
